Source: patent US5856336A, “Quinoline type mevalonolactones” (Nissan Chemical Industries Ltd., priority 1987, dated 1999)
Structures can show the parent of a compound that is named as a salt.

Tested on: cholesterol biosynthesis from acetate (liver microsome and sup fraction)
Experiment: Test A: Inhibition of cholesterol biosynthesis from acetate in vitro
Assay type: biochemical, male Wistar rat
Settings: for Relative activities by Test A: relative to CS-514 being evaluated to be 1
Method: Test A: Inhibition of cholesterol biosynthesis from acetate in vitro
Enzyme solution was prepared from liver of male Wistar rat billialy cannulated and discharged bile for over 24 hours. Liver was cut out at mid-dark and microsome and supernatant fraction which was precipitable with 40-80% of saturation of ammonium sulfate (sup fraction) were prepared from liver homogenate according to the modified method of Knauss et. al.; Kuroda, M., et. al., Biochim. Biophys. Acta, 489, 119 (1977). For assay of cholesterol biosynthesis, microsome (0.1 mg protein) and sup fraction (1.0 mg protein) were incubated for 2 hours at 37° C. in 200 μl of the reaction mixture containing ATP; 1 mM, Glutathione; 6 mM, Glucose-1-phosphate; 10 mM, NAD; 0.25 mM, NADP; 0.25 mM, CoA; 0.04 mM and 0.2 mM [2-^14 C]sodium acetate (0.2 μCi) with 4 μl of test compound solution dissolved in water or dimethyl sulfoxide. To stop reaction and saponify, 1 ml of 15% EtOH-KOH was added to the reactions and heated at 75° C. for 1 hour. […] Inhibitory activity of compounds was indicated with IC50.

CC(C)c1nc2ccccc2c(-c2ccc(F)cc2)c1/C=C/C(O)CC(O)CC(=O)O (stereo not drawn) [I-51, Sodium salt of (E)-3,5-dihydroxy-7-[4'-(4"-fluorophenyl)-2'-(1"-methylethyl)-quinolin-3 '-yl]-hept-6-enoic acid]
IC50 (Test A, rat liver microsome + sup fraction, [2-14C]sodium acetate, 2 hours at 37° C., read-out: I50 (inhibitory activities by Test A)): 0.01 µM

CCOC(=O)CC(O)CC(O)/C=C/c1c(CC)nc2ccccc2c1-c1ccc(F)cc1 (stereo not drawn) [I-117]
Relative activities by Test A: 0.37

CC(C)c1nc2c(Cl)cc(Cl)cc2c(-c2ccc(F)cc2)c1/C=C/C(O)CC(O)CC(=O)O (stereo not drawn) [I-522]
Relative activities by Test A: 0.76
